Measurements published in ChEMBL document CHEMBL4725408, “Antibacterial Spiropyrimidinetriones with N-Linked Azole Substituents on a Benzisoxazole Scaffold Targeting DNA Gyrase” (J Med Chem, 2020).
In brackets after ≈: the same amount, converted by molar mass.

How the values were obtained:
[1] = Inhibition of recombinant Escherichia coli DNA gyrase AB expressed in Escherichia coli BL21 (DE3) using relaxed pJT519 DNA as substrate preincubated for 20 mins followed by 5'-BODIPY-TMR-TTCTTCTTCT addition and measured after 1 hr by fluorescence anisotropy
[2] = n-octanol/phosphate buffer partition coefficient, log D of the compound at pH 7.4 measured after 1 hr by UV-LC/MS based shake flask method; assay type: physicochemical
[3] = Solubility of the compound by high throughput solubility assay; assay type: physicochemical
[4] = Protein binding in human plasma assessed as unbound fraction at 10 uM measured after 16 hrs by LC-MS/MS based equilibrium dialysis method; assay type: ADME, cell-free
Staphylococcus aureus [5] = assay: Antibacterial activity against methicillin sensitive Staphylococcus aureus ARC516 by broth microdilution method; assay type: functional
Staphylococcus aureus [6] = assay: Antibacterial activity against methicillin sensitive Staphylococcus aureus ARC516 in presence of human serum by broth microdilution method; assay type: functional
Staphylococcus aureus [7] = assay: Antibacterial activity against methicillin/quinolone-resistant Staphylococcus aureus ARC517 by broth microdilution method; assay type: functional
Escherichia coli = assay: Antibacterial activity against Escherichia coli ARC523 by broth microdilution method; assay type: functional
Streptococcus pneumoniae = assay: Antibacterial activity against Streptococcus pneumoniae ARC548 by broth microdilution method; assay type: functional
Streptococcus pyogenes = assay: Antibacterial activity against Streptococcus pyogenes ARC838 by broth microdilution method; assay type: functional
Haemophilus influenzae = assay: Antibacterial activity against Haemophilus influenzae ARC737 by broth microdilution method; assay type: functional

| Compound | IC50 [1] [nM] | logD at 1 h [2] | solubility [3] [µM] | fraction unbound at 16 h, 10 µM [4] | MIC (Staphylococcus aureus [5]) [µM] | MIC (Staphylococcus aureus [6]) [µM] | MIC (Staphylococcus aureus [7]) [µM] | MIC (Escherichia coli) [µM] | MIC (Streptococcus pneumoniae) [µM] | MIC (Streptococcus pyogenes) [µM] | MIC (Haemophilus influenzae) [µM] |
| --- | --- | --- | --- | --- | --- | --- | --- | --- | --- | --- | --- |
| C[C@@H]1CN2c3c(cc4c(-n5ncnc5[C@H](C)O)noc4c3F)CC3(C(=O)NC(=O)NC3=O)[C@H]2[C@H](C)O1 | 430 | 1.3 | 960 (≈ 479 µg/mL) | 0.21 | 0.78 (≈ 0.39 µg/mL) | 1.6 | 1.6 (≈ 0.799 µg/mL) | 79 (≈ 39.5 µg/mL) | 1.6 (≈ 0.799 µg/mL) | 1.6 (≈ 0.799 µg/mL) | 1.6 (≈ 0.799 µg/mL) |
| C[C@@H]1CN2c3c(cc4c(-n5ncnc5NCCO)noc4c3F)CC3(C(=O)NC(=O)NC3=O)[C@H]2[C@H](C)O1 | 270 | 1.6 | 625 (≈ 322 µg/mL) | 0.14 | 0.39 (≈ 0.201 µg/mL) | < 0.2 | 0.78 (≈ 0.401 µg/mL) | 25 (≈ 12.9 µg/mL) | 0.39 (≈ 0.201 µg/mL) | 0.39 (≈ 0.201 µg/mL) | 0.39 (≈ 0.201 µg/mL) |
| C[C@H](O)CNc1ncnn1-c1noc2c(F)c3c(cc12)CC1(C(=O)NC(=O)NC1=O)[C@H]1[C@H](C)O[C@H](C)CN31 | 260 | 1.9 | 200 (≈ 106 µg/mL) | 0.12 | < 0.2 | < 0.2 | 0.63 (≈ 0.333 µg/mL) | 25 (≈ 13.2 µg/mL) | 0.19 (≈ 0.1 µg/mL) | 0.19 (≈ 0.1 µg/mL) | 0.39 (≈ 0.206 µg/mL) |
| C[C@@H]1CN2c3c(cc4c(-n5ncnc5[C@@H](C)O)noc4c3F)CC3(C(=O)NC(=O)NC3=O)[C@H]2[C@H](C)O1 | 180 | 1.4 | 920 (≈ 460 µg/mL) | 0.23 | 0.39 (≈ 0.195 µg/mL) | 0.78 | 0.78 (≈ 0.39 µg/mL) | 50 (≈ 25 µg/mL) | 0.78 (≈ 0.39 µg/mL) | 0.78 (≈ 0.39 µg/mL) | 0.78 (≈ 0.39 µg/mL) |
| C[C@@H]1CN2c3c(cc4c(-n5ncnc5N5CCOCC5)noc4c3F)CC3(C(=O)NC(=O)NC3=O)[C@H]2[C@H](C)O1 | 660 | 1.6 | > 1000 | 0.17 | 0.39 (≈ 0.211 µg/mL) | 0.78 | 0.98 (≈ 0.53 µg/mL) | 200 (≈ 108 µg/mL) | 1.6 (≈ 0.865 µg/mL) | 0.78 (≈ 0.422 µg/mL) | 1.6 (≈ 0.865 µg/mL) |
| C[C@@H]1CN2c3c(cc4c(-n5ncnc5N(C)C)noc4c3F)CC3(C(=O)NC(=O)NC3=O)[C@H]2[C@H](C)O1 | 670 | 1.7 | > 1000 | 0.13 | 0.39 (≈ 0.194 µg/mL) | 1.6 | 0.78 (≈ 0.389 µg/mL) | 100 (≈ 49.8 µg/mL) | 1.6 (≈ 0.798 µg/mL) | 0.78 (≈ 0.389 µg/mL) | 1.6 (≈ 0.798 µg/mL) |
| C[C@@H]1CN2c3c(cc4c(-n5ncnc5C#N)noc4c3F)CC3(C(=O)NC(=O)NC3=O)[C@H]2[C@H](C)O1 | 320 | 2 | 560 (≈ 269 µg/mL) | 0.076 | < 0.2 | 0.39 | < 0.2 | 6.2 (≈ 2.98 µg/mL) | 0.39 (≈ 0.187 µg/mL) | 0.39 (≈ 0.187 µg/mL) | 0.39 (≈ 0.187 µg/mL) |
| Cc1ncn(-c2noc3c(F)c4c(cc23)CC2(C(=O)NC(=O)NC2=O)[C@H]2[C@H](C)O[C@H](C)CN42)n1 | 1000 | 1.9 | 29 (≈ 13.6 µg/mL) | 0.053 | 0.2 (≈ 0.0939 µg/mL) | 0.78 | 0.78 (≈ 0.366 µg/mL) | 100 (≈ 46.9 µg/mL) | 3.1 (≈ 1.46 µg/mL) | 0.78 (≈ 0.366 µg/mL) | 1.6 (≈ 0.751 µg/mL) |
| COCCOc1ncnn1-c1noc2c(F)c3c(cc12)CC1(C(=O)NC(=O)NC1=O)[C@H]1[C@H](C)O[C@H](C)CN31 | 320 | 1.7 | 640 (≈ 339 µg/mL) | 0.12 | 0.39 (≈ 0.206 µg/mL) | 1.6 | 1.6 (≈ 0.847 µg/mL) | 100 (≈ 52.9 µg/mL) | < 0.2 | < 0.2 | 0.39 (≈ 0.206 µg/mL) |
| COCCNc1ncnn1-c1noc2c(F)c3c(cc12)CC1(C(=O)NC(=O)NC1=O)[C@H]1[C@H](C)O[C@H](C)CN31 | 38 | 2.2 | 6 (≈ 3.17 µg/mL) | 0.077 | 0.039 (≈ 0.0206 µg/mL) | < 0.2 | 0.098 (≈ 0.0518 µg/mL) | 25 (≈ 13.2 µg/mL) | < 0.2 | < 0.2 | 0.39 (≈ 0.206 µg/mL) |
